Measured values published in patent US10888567B2, “Inhibitors of tryptophan dioxygenases (IDO1 and TDO) and their use in therapy” (AUCKLAND UNISERVICES LIMITED, priority 2014, dated 2021).

Experiments:
[1] = tested on: GL261 cells transfected to over-express human TDO; test: MTT cell viability in the cellular TDO assay; type: cell-based; settings: same experiment as cellular TDO assay
Description: The viability of the cells in each well in the same experiment was determined using the 3-(4,5-dimethylthiazolyl-2-yl)-2,5-diphenyltetrazolium bromide (MTT) colourimetric assay.

[2] = target: human TDO (GL261 cells transfected to over-express full length human TDO) (Homo sapiens (Human), UniProt P48775); test: Cell-based assay for TDO inhibition; settings: GL261 cells over-expressing human TDO, 24 h; read-out: Cellular IC50
human TDO (GL261 cells transfected to over-express full length human TDO), sequence (P48775 whole entry): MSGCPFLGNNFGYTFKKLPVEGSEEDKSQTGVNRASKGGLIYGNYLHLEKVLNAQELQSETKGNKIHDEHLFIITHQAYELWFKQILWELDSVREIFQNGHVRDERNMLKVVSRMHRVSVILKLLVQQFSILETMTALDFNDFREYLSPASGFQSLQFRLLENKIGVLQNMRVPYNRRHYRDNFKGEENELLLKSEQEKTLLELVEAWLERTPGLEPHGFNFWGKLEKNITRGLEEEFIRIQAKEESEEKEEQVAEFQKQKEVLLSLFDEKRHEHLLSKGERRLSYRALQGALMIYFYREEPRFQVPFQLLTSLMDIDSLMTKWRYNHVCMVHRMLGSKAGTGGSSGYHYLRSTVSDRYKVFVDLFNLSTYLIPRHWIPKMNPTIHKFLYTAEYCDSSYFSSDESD
Description: Culture supernatant from each well was then transferred into a fresh, flat-bottomed 96-well plate, and kynurenine content was determined as described above for the IDO1 assay, and the concentration that inhibited 50% cellular enzyme activity was calculated.

[3] = target: Recombinant human IDO1 (rhIDO1) (Homo sapiens (Human), UniProt P14902); test: Enzymatic assay for IDO1 activity; type: biochemical; settings: rhIDO1 9 nM, 80 μM TRP, 37° C. 30 min
Recombinant human IDO1 (rhIDO1), sequence (P14902 whole entry): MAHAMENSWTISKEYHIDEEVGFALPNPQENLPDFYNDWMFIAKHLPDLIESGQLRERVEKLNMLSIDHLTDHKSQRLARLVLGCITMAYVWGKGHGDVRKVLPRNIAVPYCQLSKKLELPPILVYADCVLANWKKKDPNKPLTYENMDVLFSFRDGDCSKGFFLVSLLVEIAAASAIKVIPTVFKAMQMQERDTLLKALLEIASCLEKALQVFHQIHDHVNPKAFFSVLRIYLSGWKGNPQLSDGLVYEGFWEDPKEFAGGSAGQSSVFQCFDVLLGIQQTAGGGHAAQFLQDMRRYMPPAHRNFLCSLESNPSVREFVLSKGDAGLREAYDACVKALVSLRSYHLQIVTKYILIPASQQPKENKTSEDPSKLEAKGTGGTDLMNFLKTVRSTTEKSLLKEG
Description: Recombinant human IDO1 (rhIDO1) was expressed and purified from cultures of EC538 strain of E. coli transformed with pREP4 and pQE9-IDO plasmid. Reaction mixes were set up in 384-well microplates containing 50 mM phosphate buffer, 10 mM ascorbic, 10 μM methylene blue, 100 μg/mL catalase, 80 μM TRP, 0.01% Tween 20 (v/v) mixed with rhIDO1 (15 μL) at a final concentration of 9 nM in a total volume of 30 μL assay medium. The plates were incubated at 37° C. for 30 min, and the enzymatic reaction was terminated by adding piperidine (200 mM) and heated at 65° C. for 20 min. Fluorescence intensity was read at λex 400 nm and λem 500 nm. Test compounds were dissolved in 100% DMSO and pre-diluted in assay medium prior to adding rhIDO1. IDO1 inhibition (%) was calculated as
[formula] All experiments were carried out in triplicates, and statistical Analyses were conducted in Prism v5 (Graphpad Software, Inc., La Jolla, Calif., USA). Cell-Based Assay for IDO1 Inhibition

[4] = tested on: Lewis Lung carcinoma cells transfected to express IDO1 (LLTC-hIDO1); test: MTT cell viability in the cellular IDO1 assay; type: cell-based; settings: same experiment as cellular IDO1 assay
Description: The viability of the cells in each well in the same experiment was determined using the 3-(4,5-dimethylthiazolyl-2-yl)-2,5-diphenyltetrazolium bromide (MTT) colourimetric assay. After the removal of the supernatant for determination of IDO1 inhibition, the cells were incubated with MTT (500 μg/mL) until crystal formation was observed. […] DMSO (100 μL/well) was added to dissolve the crystals and then the absorbance in each well was measured at 570 nm. Cell viability in each well was expressed as a percentage of untreated controls. Triplicate cultures were used for all experiments unless stated otherwise.

[5] = target: human IDO1 (LLTC-hIDO1 cells) (Homo sapiens, UniProt P14902); test: Cell-based assay for IDO1 inhibition (kynurenine in supernatant); settings: IDO1-transfected Lewis Lung carcinoma cells, 24 h; read-out: Cellular IC50
Description: Culture supernatant from each well was then transferred into a fresh, flat-bottomed 96-well plate, mixed with trichloroacetic acid (10% final concentration) and incubated for 20 min at 60° C. […] The absorbance of each well was read at 480 nm, and the concentration that inhibited 50% cellular enzyme activity was calculated.

Row | Compound | IC50 [1] | IC50 [2] | IC50 [3] | IC50 [4] | IC50 [5]
1 | Cc1nc2onc(N)c2c(C)c1Cl [Compound 3, 5-Chloro-4,6-dimethylisoxazolo[5,4-b]pyridin-3-amine] | > 100 µM | 1 to 10 µM | 1 to 10 µM | > 100 µM | < 1 µM
2 | Nc1noc2nc(Cl)ccc12 [Compound 11, 6-Chloroisoxazolo[5,4-b]pyridin-3-amine] | > 100 µM | < 1 µM | 1 to 10 µM | > 100 µM | < 1 µM
3 | Nc1noc2nc(Cl)c(F)cc12 [Compound 66, 6-Chloro-5-fluoroisoxazolo[5,4-b]pyridin-3-amine] | > 100 µM | < 1 µM | < 1 µM | > 100 µM | < 1 µM
4 | Nc1noc2nc(OCCN3CCOCC3)ccc12 [Compound 78, 6-(2-Morpholinoethoxy)isoxazolo[5,4-b]pyridin-3-amine] | – | – | > 100 µM | > 100 µM | > 100 µM
5 | CSc1ccc2c(N)noc2n1 [Compound 79, 6-(Methylthio)isoxazolo[5,4-b]pyridin-3-amine] | – | – | 10 to 100 µM | > 100 µM | 1 to 10 µM
6 | CS(=O)(=O)c1ccc2c(N)noc2n1 [Compound 80, 6-(methylsulfonyl)isoxazolo[5,4-b]pyridin-3-amine] | – | – | > 100 µM | > 100 µM | 10 to 100 µM
7 | Nc1noc2nc(C(=O)O)ccc12 [Compound 81, 3-Aminoisoxazolo[5,4-b]pyridine-6-carboxylic acid] | – | – | > 100 µM | > 100 µM | > 100 µM
8 | COC(=O)c1ccc2c(N)noc2n1 [Compound 82, Methyl 3-aminoisoxazolo[5,4-b]pyridine-6-carboxylate] | – | – | > 100 µM | > 100 µM | 10 to 100 µM
9 | Nc1noc2nc(Oc3ccccc3Cl)ccc12 [Compound 84, 6-(2-Chlorophenoxy)isoxazolo[5,4-b]pyridin-3-amine] | – | – | 10 to 100 µM | > 100 µM | 10 to 100 µM
10 | Nc1noc2nc(Oc3ccccc3OC(F)(F)F)ccc12 [Compound 87, 6-(2-(Trifluoromethoxy)phenoxy)isoxazolo[5,4-b]pyridin-3-amine] | – | – | > 100 µM | > 100 µM | 10 to 100 µM
11 | Nc1noc2nc(Oc3cccc(OC(F)(F)F)c3)ccc12 [Compound 88, 6-(3-(Trifluoromethoxy)phenoxy)isoxazolo[5,4-b]pyridin-3-amine] | – | – | > 100 µM | > 100 µM | 10 to 100 µM
12 | Nc1noc2nc(Oc3ccc(OC(F)(F)F)cc3)ccc12 [Compound 89, 6-(4-(Trifluoromethoxy)phenoxy)isoxazolo[5,4-b]pyridin-3-amine] | > 100 µM | 10 to 100 µM | > 100 µM | > 100 µM | 10 to 100 µM
13 | COc1ccccc1Oc1ccc2c(N)noc2n1 [Compound 90, 6-(2-Methoxyphenoxy)isoxazolo[5,4-b]pyridin-3-amine] | – | – | > 100 µM | > 100 µM | 10 to 100 µM
14 | Nc1noc2nc(Oc3cccc(C(F)(F)F)c3)ccc12 [Compound 93, 6-(3-(Trifluoromethyl)phenoxy)isoxazolo[5,4-b]pyridin-3-amine] | – | – | > 100 µM | > 100 µM | 10 to 100 µM
15 | COc1cccc(Nc2ccc3c(N)noc3n2)c1 [Compound 95, N^6-(3-Methoxyphenyl)isoxazolo[5,4-b]pyridine-3,6-diamine] | – | – | > 100 µM | > 100 µM | 1 to 10 µM
16 | COc1ccc(Nc2ccc3c(N)noc3n2)cc1 [Compound 96, N^6-(4-Methoxyphenyl)isoxazolo[5,4-b]pyridine-3,6-diamine] | – | – | > 100 µM | > 100 µM | > 100 µM
